Results: patent US20250049737A1, “Lauflumide and derivatives thereof for treating chronic fatigue syndrome and myalgic encephalomyelitis/chronic fatigue syndrome (ME/CFS)” (NLS Pharmaceutics AG, priority 2021, published 2025)
Entries after “also recorded” stand apart in the source; their conditions may differ.

How the values were obtained:
[1] = test system: Rat model of severe fatigue; assay: Rat model of severe fatigue (sleep deprivation): recording of circadian locomotor activity; assay type: in vivo, Rats, Sprague-Dawley; details: for Difference of distance travelled between the dark phase and the light phase / Distance travelled during the 12-h dark phase / Distance travelled during the 12-h light phase / Total distance travelled during the full 24-h period: days 1, 2 and 3
Procedure: In the following example, Lauflumide is also called NLS-4.
Animals are individually housed in transparent polycarbonate cages (1354G Eurostandard Type IV cage, Tecniplast, Italy, 595×380×200 mm, floor area=1820 cm^2) filled with water (23±1° C.) to a height of 1.5 cm. A platform (5 cm height, 6.5 cm diameter) was located at the center of the cage. Animals can stay on the platform in order to stay dry but falls from it when it falls in deep sleep. […] During this period, animals were placed in a modified light/dark cycle with variable durations of the light and dark periods which change every day. This procedure is intended to disrupt the circadian rhythm.
The Sham group was housed in normal condition for the same period under a 12/12 h light/dark cycle.
After the end of the fatigue period, animals were placed in transparent polycarbonate cages (Type E, Iffa Credo, France, 450×300×200 mm, floor area=1032 cm^2), under a 12 h/12 h cycle. Cages were covered with a stainless steel grid in which food and a bottle are placed. A stainless steel removable divider separated food and water. The cages were placed in infrared photobeam detection systems (Acti-track, LSI Leticca, Panlab) allowing to record continuously the distance travelled in the cage. Locomotor activity was recorded continuously for 3 days. The test started at the beginning of the dark phase of the light/dark cycle.
Seventy-six animals were subjected to the fatigue procedure and to the tests as described above. Twelve animals (Sham group) were housed in standard condition.
(§1) After the end of the Fatigue procedure, animals were divided into 10 groups which received before tests (total: 3 administrations) a per-os (p.o., oral gavage) administration of: • Sham (no fatigue) group (N=12): Vehicle. • Control group (N=11): Vehicle. • Modafinil 32 (N=10): modafinil (32 mg/kg). • Modafinil 64 (N=10): modafinil (64 mg/kg). • Modafinil 128 (N=5): modafinil (128 mg/kg). • NLS-4 16 (N=5): NLS-4 (16 mg/kg). • NLS-4 32 (N=10): NLS-4 (32 mg/kg). • NLS-4 64 (N=10): NLS-4 (64 mg/kg). • NLS-4 128 (N=10): NLS-4 (128 mg/kg). • NLS-4 256 (N=5): NLS-4 (256 mg/kg).
Read-out: distance travelled during 24-h periods, 12-h dark and light periods and during 2-h periods.
Data are expressed as mean and standard error of mean (SEM).
Statistical analyses: Student's t test, repeated measure ANOVA.
A difference is considered statistically significant at p≤0.05.

[2] = Body weight during fatigue procedure and test period; assay type: in vivo, Rats, Sprague-Dawley; details: 32-128 mg/kg p.o.; test period
Procedure: FIG. 26 Body weight (in g; mean, SEM) before the beginning and during the fatigue procedure (F-D1-7) and during the test period (T-D1-D3+24 h).
Animals were weighed every day.
as §1

[3] = test system: cocaine conditioned place preference; details: 128 mg/kg; rats; cited from earlier work
[4] = 32 mg/kg p.o., vs. Control (fatigue) group
[5] = 32 mg/kg p.o., vs. Sham (no fatigue) group
[6] = 64 mg/kg p.o., vs. Control (fatigue) group
[7] = 64 mg/kg p.o., vs. Sham (no fatigue) group
[8] = 128 mg/kg p.o., vs. Control (fatigue) group
[9] = 128 mg/kg p.o., vs. Sham (no fatigue) group

NC(=O)C[S+]([O-])C(c1ccccc1)c1ccccc1 (stereo not drawn) [Modafinil, reference compound]
Motor activity during the first 2-h periods following the dosing ([1]; 32 mg/kg p.o.): increased
Activity during the following 22 h ([1]; 32 mg/kg p.o., after the first 2-h period following dosing): few or no modification
Difference of distance travelled between the dark phase and the light phase [1, 4]: not significantly different
Distance travelled during the 12-h dark phase [1, 4]: not significantly different
Distance travelled during the 12-h light phase [1, 4]: not significantly different
Total distance travelled during the full 24-h period [1, 4]: not significantly different
Difference of distance travelled between the dark phase and the light phase [1, 5]: not lower than the Sham group on days 1 and 2 only
Distance travelled during the 12-h dark phase [1, 5]: lower than the Sham group during the dark phase on days 1 and 2 only
Distance travelled during the 12-h light phase [1, 5]: higher than the Sham group during the light phase on day 1 only
Total distance travelled during the full 24-h period [1, 5]: not significantly different
Motor activity during the first 2-h periods following the dosing ([1]; 64 mg/kg p.o.): increased
Difference of distance travelled between the dark phase and the light phase [1, 6]: higher; also recorded: increased
Distance travelled during the 12-h dark phase [1, 6]: higher
Distance travelled during the 12-h light phase [1, 6]: not significantly different
Total distance travelled during the full 24-h period [1, 6]: higher
Difference of distance travelled between the dark phase and the light phase [1, 7]: not significantly different
Distance travelled during the 12-h dark phase [1, 7]: not significantly different
Distance travelled during the 12-h light phase [1, 7]: not significantly different
Total distance travelled during the full 24-h period [1, 7]: not significantly different
Difference of distance travelled between the dark phase and the light phase [1, 8]: higher for the Modafinil 128 group than for the Control group on days 1 and 2 only; also recorded: increased
Distance travelled during the 12-h dark phase [1, 8]: higher for the Modafinil 128 group than for the Control group during the dark period on days 1 and 2 only
Distance travelled during the 12-h light phase [1, 8]: not significantly different
Total distance travelled during the full 24-h period [1, 8]: higher for the Modafinil 128 group than for the Control group on day 1 only
Distance travelled during the 12-h dark phase [1, 9]: increase the distance travelled in comparison with the Sham group during the dark phase on day 1
Total distance travelled during the full 24-h period [1, 9]: increase the distance travelled in comparison with the Sham group on day 1
Weight loss induced by the fatigue procedure [2]: not modified
Cocaine conditioned place preference following extinction [3]: strongly reinstated
